In one data set the target is T1, SARS-CoV-2 PLpro (Severe acute respiratory syndrome coronavirus 2, UniProt P0DTD1).
T1 construct: containing 60 nM papain-like protease
Nature of the data set: biochemical. Particulars: 60 nM papain-like protease, 50 μM Z-RLRGG-AMC, pH 7.5, 37° C.; read-out: SARS-CoV-2 PLpro IC50.

For data set [1], the system named is human Hep G2 cells (ATCC HB-8065). Nature of the data set: Cytotoxicity in Hep G2 cells (CellTiter-Glo). It is filed as cell-based. Particulars: Hep G2 cells, 100 μM test article, 24-hour exposure. For orientation: Cellular ATP, detected with luciferase, serves as a proxy for viable cell number.

Where a name gives a salt, the structure may show the parent alone.

`Cc1ccc(N2CCN(C)CC2)cc1C(=O)N[C@H](C)c1cccc(-c2csc(C(=O)N(C)C)c2)c1` [Example 101, N,N-Dimethyl-4-[3-[(1R)-1-[[2-methyl-5-(4-methylpiperazin-1-yl)benzoyl]amino]ethyl]phenyl]thiophene-2-carboxamide]: the IC50 – broadly, the concentration at which inhibition is half-maximal – on SARS-CoV-2 PLpro is below 2000 nM. For the same compound, the “% Cell Viability” value in data set [1] is recorded as 88.1%.
`Cc1ccc(N2CCN(C)CC2)cc1C(=O)N[C@H](C)c1cccc(-c2cccc(=O)[nH]2)c1` [Example 76, 2-Methyl-5-(4-methylpiperazin-1-yl)-N-[(1R)-1-[3-(6-oxo-1H-pyridin-2-yl)phenyl]ethyl]benzamide]: the IC50 at SARS-CoV-2 PLpro was below 2000 nM. In addition, the “% Cell Viability” value in data set [1] is listed as 81.2%.
For the compound `Cc1ccc(N2CCN(C)CC2)cc1C(=O)N[C@H](C)c1cccc(-c2cccc(C(=O)N3CCCCC3)c2)c1` [Example 91, 2-Methyl-5-(4-methylpiperazin-1-yl)-N-[(1R)-1-[3-[3-(piperidine-1-carbonyl)phenyl]phenyl]ethyl]benzamide], at SARS-CoV-2 PLpro, the IC50 is below 2000 nM. Moreover, the “% Cell Viability” value in data set [1] stood at 27.1%.
As for `COc1ccc([C@@H](C)NC(=O)c2cc(N3CCN(C)CC3)ccc2C)cc1-c1ccc(=O)n(C)c1` [Example 210, N-[(1R)-1-[4-Methoxy-3-(1-methyl-6-oxo-3-pyridyl)phenyl]ethyl]-2-methyl-5-(4-methylpiperazin-1-yl)benzamide], the concentration for half-maximal inhibition (IC50) on SARS-CoV-2 PLpro is below 5000 nM. Further, in data set [1], the “% Cell Viability” value came out at 64.0%.
With `Cc1ccc(N2CCN(C)CC2)cc1C(=O)N[C@H](C)c1ccc(F)c(-c2ccccc2)c1` [Example 218, N-[(1R)-1-(4-Fluoro-3-phenyl-phenyl)ethyl]-2-methyl-5-(4-methylpiperazin-1-yl)benzamide], the IC50 at SARS-CoV-2 PLpro is below 2000 nM. Moreover, the “% Cell Viability” value in data set [1] came out at 1.5%.
Turning to `Cc1ccc(C2CCNCC2)cc1C(=O)N[C@H](C)c1cccc2ccccc12` [Example 156, 2-Methyl-N-[(1R)-1-(1-napthyl)ethyl]-5-(4-piperidyl)benzamide], the IC50 at SARS-CoV-2 PLpro was below 2000 nM. Further, the “% Cell Viability” value in data set [1] was 0.6%.
Taken in the same sequence, the figures for `COc1cc(-c2ccnn2C)cc([C@@H](C)NC(=O)c2cc(N3C[C@H]4C[C@@H]3CN4C)ccc2C)c1` [Example 248, N-[(1R)-1-[3-Methoxy-5-(2-methylpyrazol-3-yl)phenyl]ethyl]-2-methyl-5-[(1R,4R)-5-methyl-2,5-diazabicyclo[2.2.1]heptan-2-yl]benzamide] were below 2000 nM and 55.3%.
For `COc1cc(-c2cnn(C)c2)cc([C@@H](C)NC(=O)c2cc(N3CC4CN(C)CC4C3)ccc2C)c1` (stereo partly drawn) [Example 242, N-[(1R)-1-[3-Methoxy-5-(1-methylpyrazol-4-yl)phenyl]ethyl]-2-methyl-5-(2-methyl-1,3,3a,4,6,6a-hexahydropyrrolo[3,4-c]pyrrol-5-yl)benzamide], the half-maximal inhibitory concentration (IC50) on SARS-CoV-2 PLpro was below 2000 nM. Besides, the “% Cell Viability” value in data set [1] turned out to be 62.4%.
With `Cc1ccc(N2CCN(CCCC(=O)O)CC2)cc1C(=O)N[C@H](C)c1cccc2ccccc12` [Example 172, 4-[4-[4-Methyl-3-[[(1R)-1-(1-naphthyl)ethyl]carbamoyl]phenyl]piperazin-1-yl]butanoic Acid], the half-maximal inhibitory concentration (IC50) at SARS-CoV-2 PLpro is below 2000 nM. In data set [1], the “% Cell Viability” value was found to be 104.6%.
Taken in the same sequence, the figures for `Cc1ccc(N2CCN(C)CC2)cc1C(=O)N[C@H](C)c1ccc(N2CCNCC2)cc1` [Example 106, 2-Methyl-5-(4-methylpiperazin-1-yl)-N-[(1R)-1-(4-piperazin-1-ylphenyl)ethyl]benzamide] were below 5000 nM and 87.4%.
For the compound `Cc1ccc(N2CCN(C)CC2)cc1C(=O)N[C@H](C)c1cccc(F)c1` [Example 25, N-[(1R)-1-(3-Fluorophenyl)ethyl]-2-methyl-5-(4-methylpiperazin-1-yl)benzamide], at SARS-CoV-2 PLpro, the IC50 is below 20000 nM. Besides, the “% Cell Viability” value in data set [1] was 95.2%.
On to `CNC(=O)c1cccc([C@@H](C)NC(=O)c2cc(N3CCN(C)CC3)ccc2C)c1` [Example 312, 2-Methyl-N-[(1R)-1-[3-(methylcarbamoyl)phenyl]ethyl]-5-(4-methylpiperazin-1-yl)benzamide], for which the IC50 at SARS-CoV-2 PLpro was below 10000 nM. Besides, in data set [1], the “% Cell Viability” value is reported as 78.3%.
Take `Cc1ccc(N2CCN(C)CC2)cc1C(=O)N[C@H](C)c1cccc2c1OCO2` [Example 33, N-[(1R)-1-(1,3-Benzodioxol-4-yl)ethyl]-2-methyl-5-(4-methylpiperazin-1-yl)benzamide hydrochloride salt]: on SARS-CoV-2 PLpro, the 50% inhibitory concentration (IC50) is below 10000 nM. In addition, the “% Cell Viability” value in data set [1] is reported as 95.5%.
For `Cc1ccc(N2CCN(C)CC2)cc1C(=O)N[C@H](C)c1cccc(-c2ccc(C3CCNCC3)cc2)c1` [Example 77, 2-Methyl-5-(4-methylpiperazin-1-yl)-N-[(1R)-1-[3-[4-(4-piperidyl)phenyl]phenyl]ethyl]benzamide] the same measures were below 2000 nM and 1.0%.
Take `COc1cc(-c2ccccc2)cc([C@@H](C)NC(=O)c2cc(N3CCN(C)CC3)ccc2C)c1` [Example 234, N-[(1R)-1-(3-Methoxy-5-phenyl-phenyl)ethyl]-2-methyl-5-(4-methylpiperazin-1-yl)benzamide]: at SARS-CoV-2 PLpro, the IC50 is below 2000 nM. In data set [1], the “% Cell Viability” value was 0.9%.
Take `Cc1ccc(N2CCN(C)CC2)cc1C(=O)N[C@H](C)c1cccc(-c2ccc(C(=O)O)cc2)c1` [Example 41]: the IC50 at SARS-CoV-2 PLpro is below 5000 nM. The “% Cell Viability” value in data set [1] is recorded as 110.1%.
In the case of `COc1ccc([C@@H](C)NC(=O)c2cc(N3CC4CN(C)CC4C3)ccc2C)cc1-c1cnn(C)c1` (stereo partly drawn) [Example 240, N-[(1R)-1-[4-Methoxy-3-(1-methylpyrazol-4-yl)phenyl]ethyl]-2-methyl-5-(2-methyl-1,3,3a,4,6,6a-hexahydropyrrolo[3,4-c]pyrrol-5-yl)benzamide], the IC50 on SARS-CoV-2 PLpro was below 2000 nM. Further, the “% Cell Viability” value in data set [1] was determined as 64.3%.
In the case of `Cc1ccc(C2CC2)cc1C(=O)N[C@H](C)c1cccc2ccccc12` [Example 4, 5-Cyclopropyl-2-methyl-N-[(1R)-1-(1-naphthyl)ethyl]benzamide], the IC50 on SARS-CoV-2 PLpro is below 5000 nM. Further, in data set [1], the “% Cell Viability” value came to 56.8%.
For `Cc1ccc(N2CCN(C)CC2)cc1C(=O)N[C@H](C)c1cccc(-c2c(C)n[nH]c2C)c1` [Example 58, N-[(1R)-1-[3-(3,5-Dimethyl-1H-pyrazol-4-yl)phenyl]ethyl]-2-methyl-5-(4-methylpiperazin-1-yl)benzamide] the same measures were below 2000 nM and 86.7%.
As for `COc1cc(-c2cnn(C)c2)cc([C@@H](C)NC(=O)c2cc(C3CCN(C)CC3)ccc2C)c1` [Example 302, N-[(1R)-1-[3-Methoxy-5-(1-methylpyrazol-4-yl)phenyl]ethyl]-2-methyl-5-(1-methyl-4-piperidyl)benzamide], the 50% inhibitory concentration (IC50) on SARS-CoV-2 PLpro was below 2000 nM. Besides, in data set [1], the “% Cell Viability” value is 67.1%.
As for `COc1ccc([C@@H](C)NC(=O)c2cc(N3CCN(C)CC3)ccc2C)c2ccccc12` [Example 192, N-[(1R)-1-(4-Methoxy-1-naphthyl)ethyl]-2-methyl-5-(4-methylpiperazin-1-yl)benzamide], the half-inhibitory concentration (IC50) at SARS-CoV-2 PLpro is below 2000 nM. Further, the “% Cell Viability” value in data set [1] turned out to be 6.3%.
As to `Cc1ccc(N2CCN(CC3CC3)CC2)cc1C(=O)N[C@H](C)c1cccc2ccccc12` [Example 118, 5-[4-(Cyclopropylmethyl)piperazin-1-yl]-2-methyl-N-[(1R)-1-(1-naphthyl)ethyl]benzamide], the IC50 on SARS-CoV-2 PLpro is below 2000 nM. In data set [1], the “% Cell Viability” value is reported as 6.6%.
Take `Cc1ccc(N2CCN(C)CC2)cc1C(=O)N[C@H](C)c1ccc(OCc2ccccc2)c(-c2cnn(C)c2)c1` [Example 249, N-[(1R)-1-[4-Benzyloxy-3-(1-methylpyrazol-4-yl)phenyl]ethyl]-2-methyl-5-(4-methylpiperazin-1-yl)benzamide]: the half-inhibitory concentration (IC50) at SARS-CoV-2 PLpro is below 2000 nM. For the same compound, the “% Cell Viability” value in data set [1] is 0.5%.
Consider `COc1ccc([C@@H](C)NC(=O)c2cc(N3CCN(C)CC3)ccc2C)cc1-c1cnn(CCO)c1` [Example 284, N-[(1R)-1-[3-[1-(2-Hydroxyethyl)pyrazol-4-yl]-4-methoxy-phenyl]ethyl]-2-methyl-5-(4-methylpiperazin-1-yl)benzamide], for which the IC50 on SARS-CoV-2 PLpro is below 2000 nM. In data set [1], the “% Cell Viability” value stood at 101.3%.
For `Cc1ccc(N2CCN(C)CC2)cc1C(=O)N[C@H](C)c1ccc(Br)cc1` [Example 24, N-[(1R)-1-(4-Bromophenyl)ethyl]-2-methyl-5-(4-methylpiperazin-1-yl)benzamide] the same measures were below 10000 nM and 70.7%.
Consider `Cc1ccc(N2CCN(C)CC2)cc1C(=O)N[C@H](C)c1cc(O)cc(-c2cnn(C)c2)c1` [Example 275, N-[(1R)-1-[3-Hydroxy-5-(1-methylpyrazol-4-yl)phenyl]ethyl]-2-methyl-5-(4-methylpiperazin-1-yl)benzamide], for which the IC50 on SARS-CoV-2 PLpro was below 2000 nM. Also, the “% Cell Viability” value in data set [1] stood at 80.7%.
Turning to `Cc1ccc(C2CCN(C)CC2)cc1C(=O)N[C@H](C)c1cccc2ccccc12` [Example 157, 2-Methyl-5-(1-methyl-4-piperidyl)-N-[(1R)-1-(1-naphthyl)ethyl]benzamide], the concentration for half-maximal inhibition (IC50) on SARS-CoV-2 PLpro was below 2000 nM. Besides, the “% Cell Viability” value in data set [1] is given as 1.5%.
For `Cc1ccc(N2CCN(C)CC2)cc1C(=O)N[C@H](C)c1cc(-c2ccccc2)cs1` [Example 231, 2-Methyl-5-(4-methylpiperazin-1-yl)-N-[(1R)-1-(4-phenyl-2-thienyl)ethyl]benzamide], the IC50 on SARS-CoV-2 PLpro was below 2000 nM. The “% Cell Viability” value in data set [1] was 1.6%.
Consider `COc1cc(-c2cnn(C)c2)cc([C@@H](C)NC(=O)c2cc(N3CCCN(C)CC3)ccc2C)c1` [Example 247, N-[(1R)-1-[3-Methoxy-5-(1-methylpyrazol-4-yl)phenyl]ethyl]-2-methyl-5-(4-methyl-1,4-diazepan-1-yl)benzamide], for which the IC50 at SARS-CoV-2 PLpro was below 2000 nM. Also, the “% Cell Viability” value in data set [1] is listed as 56.7%.

The values above are taken from patent publication US20240383852A1, “ANTI-VIRAL COMPOUNDS” (INFEX Therapeutics Limited, priority 2021, published 2024).
